Two compounds from patent publication US6696404B1, “Antibacterial composition having xanthorrizol” (LG Household & Healthcare, priority 1999, dated 2004) can be followed below.

The structures appear in SMILES notation. ≈ marks a conversion by molar mass, not a printed value.

Assay [1] can be described thus: Antibacterial activity of acetylated single compound. To be noted: acetylated form. The class given is cell-based. The protocol: Since fraction II had some impurities, acetylation of the fraction was carried out to change its polarity as a procedure to obtain a single compound with antibacterial activity: 0.5 g of fraction II was dissolved in 5 ml pyridine, added with 5 ml of acetic anhydride in a drop-wise manner at ice-cold temperature, and stirred at room temperature for more than 15 hours. The reactant was subjected to partition extraction with 100 ml of ice-cold water once, and subsequently 100 ml of ethylacetate twice. The ethylacetate phase thus obtained was washed with 5% HCl, NaHCO3 and NaCl, dehydrated with anhydrous MgSO4, filtered and condensed under a reduced pressure. The resultant was finally applied onto a silica gel column(4.7×50 cm), and eluted with a solvent mixture of hexane and ethylacetate(15:1, v/v) to give an acetylated single compound. […] Then, 2 ml of 5% KOH was added to the compound, reacted with stirring for more than 2 hours, and neutralized using cation exchange resin(DOWEX50WX4-400), followed by filtration and condensation to give a single isolated compound. Thereafter, its molecular weight was measured with EI-MS(VG Platform II, FISIONS, 15 eV), and chemical identification was conducted using analytical instruments of ^1H-NMR, ^13C-NMR(400 MHz, CDCl3) and IR(Perkin Elmer spectrum I , DTGS detector). […]

The next assay relates to Streptococcus mutans. Kind of assay: Minimum inhibitory concentration of active fractions. The class given is cell-based. Here is the method:
The crude extract, prepared in Example 1-1 was applied to a silica gel column chromatography: the crude extract was applied to a column chromatography(5×43 cm) filled with silica gel(Merck, U.S.A.) of 70 to 230 mesh, and eluted with a mixed gradient of hexane and ethylacetate (10:1→3:1→1:1). Then, thin layer chromatography(TLC) was performed with the active fractions obtained in the course of chromatographic procedure to give 8 different fractions(fractions I to VIII ) with similar retention on the TLC plate. Antibacterial activity of the fractions was measured in terms of minimum inhibitory concentration(MIC), and compared to that of vancomycin.

In the case of `CC(=O)Oc1cc(C(C)CCC=C(C)C)ccc1C` (centres unmarked) [acetylated single compound], the antibacterial activity result in assay [1] was “no antibacterial activity”.

One may read the MIC as the smallest concentration in the dilution series that meets the test's criterion for growth inhibition. Low values mean greater potency, high ones weaker potency. In the assay with Streptococcus mutans, `CN[C@H](CC(C)C)C(=O)N[C@H]1C(=O)N[C@@H](CC(N)=O)C(=O)N[C@H]2C(=O)N[C@H]3C(=O)N[C@H](C(=O)N[C@H](C(=O)O)c4cc(O)cc(O)c4-c4cc3ccc4O)[C@H](O)c3ccc(c(Cl)c3)Oc3cc2cc(c3O[C@@H]2O[C@H](CO)[C@@H](O)[C@H](O)[C@H]2O[C@H]2C[C@](C)(N)[C@H](O)[C@H](C)O2)Oc2ccc(cc2Cl)[C@H]1O` [Vancomycin, vancomycin] returned an MIC of 1 µg/mL (≈ 0.69 µM).
